Structures are written as SMILES. Active and inactive are the calls of the source. On the calls: in the data inactive means no Kd found up to 30 µM.

Test [1] concerns the target T1, Electron transfer flavoprotein subunit beta (Homo sapiens, UniProt P38117).
T1 sequence (P38117 whole entry): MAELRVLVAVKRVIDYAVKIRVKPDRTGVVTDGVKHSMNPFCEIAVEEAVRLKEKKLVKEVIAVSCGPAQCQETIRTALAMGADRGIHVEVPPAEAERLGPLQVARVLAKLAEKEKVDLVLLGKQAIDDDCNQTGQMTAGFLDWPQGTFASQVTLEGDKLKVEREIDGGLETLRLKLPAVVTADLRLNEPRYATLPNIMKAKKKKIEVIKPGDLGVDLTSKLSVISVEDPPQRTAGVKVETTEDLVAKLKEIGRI

The target in test [2] is T2, Tyrosine-protein kinase Mer (Homo sapiens, UniProt Q12866).
T2 sequence (Q12866 whole entry): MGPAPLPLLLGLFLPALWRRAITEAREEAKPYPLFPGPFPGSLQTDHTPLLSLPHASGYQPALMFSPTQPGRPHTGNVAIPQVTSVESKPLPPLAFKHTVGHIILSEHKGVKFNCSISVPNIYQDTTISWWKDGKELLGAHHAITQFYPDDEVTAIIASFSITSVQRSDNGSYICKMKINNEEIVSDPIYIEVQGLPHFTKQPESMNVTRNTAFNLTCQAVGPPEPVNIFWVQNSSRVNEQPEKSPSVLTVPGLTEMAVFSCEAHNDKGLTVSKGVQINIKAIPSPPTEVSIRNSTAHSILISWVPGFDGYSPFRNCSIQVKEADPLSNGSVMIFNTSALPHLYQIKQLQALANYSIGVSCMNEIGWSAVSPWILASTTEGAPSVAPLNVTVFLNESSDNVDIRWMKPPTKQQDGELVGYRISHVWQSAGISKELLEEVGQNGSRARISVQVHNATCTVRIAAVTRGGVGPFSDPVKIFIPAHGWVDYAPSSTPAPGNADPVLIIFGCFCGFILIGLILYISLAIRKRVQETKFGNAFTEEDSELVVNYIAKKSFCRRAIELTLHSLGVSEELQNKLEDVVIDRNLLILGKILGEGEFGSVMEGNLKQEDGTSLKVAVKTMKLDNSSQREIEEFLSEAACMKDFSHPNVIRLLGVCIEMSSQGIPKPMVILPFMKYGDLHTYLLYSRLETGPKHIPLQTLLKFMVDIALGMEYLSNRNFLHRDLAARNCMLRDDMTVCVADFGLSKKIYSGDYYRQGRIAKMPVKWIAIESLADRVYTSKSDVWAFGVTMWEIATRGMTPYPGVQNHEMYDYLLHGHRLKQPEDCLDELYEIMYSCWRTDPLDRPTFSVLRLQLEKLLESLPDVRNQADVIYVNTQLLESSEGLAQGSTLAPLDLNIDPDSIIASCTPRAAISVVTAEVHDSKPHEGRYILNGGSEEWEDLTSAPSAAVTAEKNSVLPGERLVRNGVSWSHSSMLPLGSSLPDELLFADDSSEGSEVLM

Test [3] has as its target T3, Cyclin-dependent kinase-like 5 (Homo sapiens, UniProt O76039).
T3 sequence (O76039 whole entry): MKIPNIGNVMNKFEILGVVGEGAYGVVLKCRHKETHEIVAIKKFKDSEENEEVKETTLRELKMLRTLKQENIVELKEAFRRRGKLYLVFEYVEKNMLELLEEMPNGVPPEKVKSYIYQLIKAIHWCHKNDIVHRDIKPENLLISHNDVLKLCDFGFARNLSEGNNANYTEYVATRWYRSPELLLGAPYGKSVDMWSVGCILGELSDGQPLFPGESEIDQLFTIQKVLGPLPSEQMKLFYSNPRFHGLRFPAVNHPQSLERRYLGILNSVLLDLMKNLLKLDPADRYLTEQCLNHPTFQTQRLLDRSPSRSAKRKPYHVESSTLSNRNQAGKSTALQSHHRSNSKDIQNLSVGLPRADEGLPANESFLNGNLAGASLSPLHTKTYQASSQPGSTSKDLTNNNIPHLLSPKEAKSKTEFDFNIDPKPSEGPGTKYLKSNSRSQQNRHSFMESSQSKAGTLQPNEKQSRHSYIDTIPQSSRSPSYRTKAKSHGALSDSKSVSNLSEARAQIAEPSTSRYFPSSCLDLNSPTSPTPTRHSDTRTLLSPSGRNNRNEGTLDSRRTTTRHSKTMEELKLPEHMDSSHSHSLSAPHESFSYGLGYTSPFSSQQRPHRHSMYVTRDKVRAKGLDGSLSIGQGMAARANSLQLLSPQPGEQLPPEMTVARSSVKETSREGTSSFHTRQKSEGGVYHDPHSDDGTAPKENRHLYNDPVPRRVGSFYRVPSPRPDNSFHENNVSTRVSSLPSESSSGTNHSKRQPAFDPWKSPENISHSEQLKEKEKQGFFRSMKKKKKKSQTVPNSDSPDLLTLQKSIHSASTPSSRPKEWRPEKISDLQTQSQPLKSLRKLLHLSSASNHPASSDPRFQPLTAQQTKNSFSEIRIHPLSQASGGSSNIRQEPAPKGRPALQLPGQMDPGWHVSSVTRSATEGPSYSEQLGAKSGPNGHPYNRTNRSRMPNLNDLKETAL

Test [4] concerns the target T4, Dual specificity mitogen-activated protein kinase kinase 4 (Homo sapiens, UniProt P45985).
T4 sequence (P45985 whole entry): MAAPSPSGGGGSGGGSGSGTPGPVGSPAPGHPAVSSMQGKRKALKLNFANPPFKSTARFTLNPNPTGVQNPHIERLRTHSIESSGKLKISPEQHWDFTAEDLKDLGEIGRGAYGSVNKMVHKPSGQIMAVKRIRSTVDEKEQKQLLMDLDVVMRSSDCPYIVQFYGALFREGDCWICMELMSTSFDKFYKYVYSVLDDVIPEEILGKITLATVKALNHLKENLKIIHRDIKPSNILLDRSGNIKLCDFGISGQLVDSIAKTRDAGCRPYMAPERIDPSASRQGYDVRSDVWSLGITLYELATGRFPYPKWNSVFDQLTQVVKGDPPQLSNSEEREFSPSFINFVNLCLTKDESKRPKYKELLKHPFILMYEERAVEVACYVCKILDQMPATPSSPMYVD

Test [5] deals with Serine/threonine-protein kinase pim-2 (Homo sapiens, UniProt Q9P1W9).
Chain of Serine/threonine-protein kinase pim-2 (Q9P1W9 whole entry): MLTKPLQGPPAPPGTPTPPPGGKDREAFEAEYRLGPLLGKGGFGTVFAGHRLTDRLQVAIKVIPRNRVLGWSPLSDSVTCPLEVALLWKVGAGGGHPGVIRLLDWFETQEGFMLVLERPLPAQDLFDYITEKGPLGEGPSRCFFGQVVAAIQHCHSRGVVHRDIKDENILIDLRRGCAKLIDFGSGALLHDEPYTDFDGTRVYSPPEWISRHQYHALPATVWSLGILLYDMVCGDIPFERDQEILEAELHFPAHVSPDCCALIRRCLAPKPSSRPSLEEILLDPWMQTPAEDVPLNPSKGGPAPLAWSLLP
Test [6] deals with Serine/threonine-protein kinase Nek7 (Homo sapiens, UniProt Q8TDX7).
Chain of Serine/threonine-protein kinase Nek7 (Q8TDX7 whole entry): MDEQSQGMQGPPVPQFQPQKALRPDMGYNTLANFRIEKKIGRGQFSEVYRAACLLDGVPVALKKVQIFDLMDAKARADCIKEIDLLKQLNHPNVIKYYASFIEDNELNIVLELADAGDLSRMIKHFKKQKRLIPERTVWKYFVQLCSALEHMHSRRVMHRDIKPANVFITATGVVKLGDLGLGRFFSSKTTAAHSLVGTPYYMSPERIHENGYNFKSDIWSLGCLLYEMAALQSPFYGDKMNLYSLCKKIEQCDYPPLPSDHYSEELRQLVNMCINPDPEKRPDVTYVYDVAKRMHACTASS

As a reminder, the Kd is a measure of binding affinity in units of concentration. As to `Cc1nc2cc(-c3nn(C(C)C)c4ncnc(N)c34)ccc2o1`, the Kd in test [1], in test [2] and in test [3] was > 30 µM (inactive) throughout.

Consider `Cc1csc(-c2nnc(Nc3ccc(Oc4ncccc4-c4ccnc(N)n4)cc3)c3ccccc23)c1` [AMG-900], for which the Kd in test [1], in test [4], in test [2] and in test [5] was > 30 µM (inactive) each time.

For the molecule `Cc1cc(C(=O)NOCCO)c(Nc2ccc(I)cc2F)n(C)c1=O` [AZD-8330], the Kd in test [4], in test [6] and in test [3] was > 30 µM (inactive) in each case.

With `Cn1cnc2c(F)c(Nc3ccc(Br)cc3F)c(C(=O)NOCCO)cc21` [BINIMETINIB], the Kd in test [1], in test [4], in test [2] and in test [5] was > 30 µM (inactive) in each case.

In the case of `COc1cc2ncnc(Oc3cccc(NC(=O)Nc4cc(C(C)(C)C(F)(F)F)on4)c3)c2cc1OC` [CEP-32496], the Kd in test [1], in test [4], in test [2] and in test [5] was > 30 µM (inactive) in each case.

As for `Cc1cc(Nc2ncc(Cl)c(Nc3ccccc3S(=O)(=O)C(C)C)n2)c(OC(C)C)cc1C1CCNCC1` [CERITINIB], the Kd in test [2], in test [6], in test [3] and in test [5] was > 30 µM (inactive) in each case.

Regarding `COc1c(OCCCN2CCOCC2)ccc2c1N=C(NC(=O)c1cnc(N)nc1)N1CCN=C21` [COPANLISIB], the Kd in test [1], in test [4], in test [2] and in test [3] was > 30 µM (inactive) throughout.

On to `COCC(=O)NC/C=C/c1ccc2ncnc(Nc3ccc(Oc4ccc(C)nc4)c(C)c3)c2c1` [CP-724714], for which the Kd in test [1], in test [2], in test [3] and in test [5] was > 30 µM (inactive) in each case.

As to `O=C(Nc1nc2cccc(-c3ccc(CN4CCS(=O)(=O)CC4)cc3)n2n1)C1CC1` [FILGOTINIB], the Kd in test [1], in test [4], in test [6] and in test [5] was > 30 µM (inactive) in each case.

Consider `CCn1cc(-c2ccnc3[nH]c(-c4cccc(CN(C)C)c4)cc23)c(-c2ccc(NC(=O)N(C)C)cc2)n1` [GSK-1070916], for which the Kd in test [4], in test [6], in test [3] and in test [5] was > 30 µM (inactive) each time.

Regarding `O=C(Nc1cc(C(F)(F)F)cc(C(F)(F)F)c1)c1cc(Cl)ccc1O` [IMD-0354], the Kd in test [2], in test [6] and in test [3] was > 30 µM (inactive) each time.

`NC1(c2ccc(-c3nc4ccn5c(=O)[nH]nc5c4cc3-c3ccccc3)cc2)CCC1` [MK-2206]: the Kd in test [2] and in test [6] was > 30 µM (inactive) throughout.

Consider `FC(F)(F)c1ccc(/C=C/c2nc(COc3ccc(CCCCn4ccnn4)cc3)co2)cc1` [MUBRITINIB], for which the Kd in test [2], in test [3] and in test [5] was > 30 µM (inactive) throughout.

On to `Cc1[nH]c(/C=C2\C(=O)Nc3ccccc32)c(C)c1CCC(=O)O` [ORANTINIB], for which the Kd in test [1], in test [4], in test [6] and in test [3] was > 30 µM (inactive) throughout.

Regarding `CC(=O)NCC(=O)N1[C@@H]2CC[C@H]1c1ccc(Nc3ncc(C(F)(F)F)c(NC4CCC4)n3)cc12` [PF-03814735], the Kd in test [4] and in test [2] was > 30 µM (inactive) in each case.

Take `CNC(=O)c1cc(Oc2ccc(NC(=O)Nc3cc(C(C)(C)C)nn3-c3ccc4ncccc4c3)c(F)c2)ccn1` [REBASTINIB]: the Kd in test [2], in test [6] and in test [5] was > 30 µM (inactive) each time.

With `O=c1[nH]ccc2cc(OC3CCNCC3)ccc12` [SAR-407899 FREE BASE], the Kd in test [1], in test [2], in test [6], in test [3] and in test [5] was > 30 µM (inactive) in each case.

In the case of `CO[C@H]1C[C@@H]2CC[C@@H](C)[C@@](O)(O2)C(=O)C(=O)N2CCCC[C@H]2C(=O)O[C@H]([C@H](C)C[C@@H]2CC[C@@H](O)[C@H](OC)C2)CC(=O)[C@H](C)/C=C(\C)[C@@H](O)[C@@H](OC)C(=O)[C@H](C)C[C@H](C)/C=C/C=C/C=C/1C` [SIROLIMUS], the Kd in test [1], in test [2] and in test [3] was > 30 µM (inactive) in each case.

Turning to `CCS(=O)(=O)c1cccc(-c2cc(C(=O)NC3CCN(C)CC3)c(C)c3[nH]c4ncc(C)cc4c23)c1` [TAK-901], the Kd in test [4], in test [2] and in test [5] was > 30 µM (inactive) throughout.

With `O=C(Cc1ccc(-c2ccc(OCCN3CCOCC3)cc2)cn1)NCc1ccccc1` [TIRBANIBULIN], the Kd in test [1], in test [4], in test [6] and in test [5] was > 30 µM (inactive) each time.

As to `C[C@@H](NC(=O)c1ncnc(N)c1Cl)c1ncc(C(=O)Nc2cc(C(F)(F)F)c(Cl)cn2)s1` [TOVORAFENIB], the Kd in test [4] was 0.146 µM; in test [2], > 30 µM (inactive); in test [3], > 30 µM (inactive); in test [5] it was > 30 µM (inactive).

In the case of `Cc1cc(Nc2ncnc3ccc(NC4=NC(C)(C)CO4)cc23)ccc1Oc1ccn2ncnc2c1` [TUCATINIB], the Kd in test [2], in test [6] and in test [3] was > 30 µM (inactive) in each case.

The values above are taken from ChEMBL document CHEMBL3991601, “The target landscape of clinical kinase drugs” (Science, 2017).
